Measurements reported in ChEMBL document CHEMBL1201862, “PubChem BioAssay data set” (2004).
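Following 48 hours of exposure in 96-well plates, responses at five concentrations were used to interpolate endpoints linearly. The concentration for 50% growth inhibition is given as GI50.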 Calls of active or inactive are those of the source. Cut-off read from the data, not from the text of the source: active = GI50 up to about 1.1 µM and inactive = higher.

What was measured:
Assay in all cases: inhibition of tumour cell growth, NCI panel, 48 h
[1] = test system: SK-MEL-2
[2] = test system: NCI-H23
[3] = test system: 786-0
[4] = test system: K562
[5] = test system: TK-10
[6] = test system: Malme-3M
[7] = test system: BT-549
[8] = test system: COLO 205
[9] = test system: IGROV-1
[10] = test system: KM12
[11] = test system: EKVX
[12] = test system: NCI-H522
[13] = test system: ACHN
[14] = test system: HT-29
[15] = test system: LOX IMVI
[16] = test system: T47D
[17] = test system: HCC 2998
[18] = test system: M14
[19] = test system: SN12C
[20] = test system: OVCAR-3

Row | Structure (SMILES) | GI50 [1] | GI50 [2] | GI50 [3] | GI50 [4] | GI50 [5] | GI50 [6] | GI50 [7] | GI50 [8] | GI50 [9] | GI50 [10] | GI50 [11] | GI50 [12] | GI50 [13] | GI50 [14] | GI50 [15] | GI50 [16] | GI50 [17] | GI50 [18] | GI50 [19] | GI50 [20]
1 | CC(=O)Nc1ccc(-c2nc3ccccc3s2)cc1Cl | > 100 µM (inactive) | 51.4 µM (inactive) | > 78.3 µM (inactive) | > 100 µM (inactive) | 0.0664 µM (active) | > 100 µM (inactive) | > 75.9 µM (inactive) | > 100 µM (inactive) | < 0.0217 µM (active) | 57.4 µM (inactive) | 5.6 µM (inactive) | 54.5 µM (inactive) | > 74 µM (inactive) | > 95.5 µM (inactive) | > 86.5 µM (inactive) | 0.395 µM (active) | 0.23 µM (active) | 68.7 µM (inactive) | > 100 µM (inactive) | 
2 | CC(C)(C)OC(=O)NCCNC(=O)CN(CC(=O)O)C1CCCCC1N(CC(=O)O)CC(=O)O (centres undefined) | > 100 µM (inactive) | > 100 µM (inactive) | > 100 µM (inactive) | > 100 µM (inactive) | > 100 µM (inactive) | > 100 µM (inactive) | > 100 µM (inactive) | > 100 µM (inactive) | > 100 µM (inactive) | > 100 µM (inactive) |  | > 100 µM (inactive) | > 100 µM (inactive) | > 100 µM (inactive) | > 100 µM (inactive) | > 100 µM (inactive) | > 100 µM (inactive) | > 100 µM (inactive) | > 100 µM (inactive) | > 100 µM (inactive)
3 | CN1C(NCCO)=NS(=O)(=O)c2ccccc21 | > 100 µM (inactive) | > 100 µM (inactive) | > 100 µM (inactive) | > 100 µM (inactive) | > 100 µM (inactive) |  | > 100 µM (inactive) | > 100 µM (inactive) | > 100 µM (inactive) | > 100 µM (inactive) | > 100 µM (inactive) | > 100 µM (inactive) | > 100 µM (inactive) | > 100 µM (inactive) | > 100 µM (inactive) | > 100 µM (inactive) | > 100 µM (inactive) | > 100 µM (inactive) | > 100 µM (inactive) | > 100 µM (inactive)
4 | c1ccc(CSP234N5CCN2CCN3CCN4CC5)c(CSP234N5CCN2CCN3CCN4CC5)c1 | > 100 µM (inactive) | > 100 µM (inactive) | > 100 µM (inactive) |  | > 100 µM (inactive) |  | > 100 µM (inactive) | 13.6 µM (inactive) | > 100 µM (inactive) | > 100 µM (inactive) | > 100 µM (inactive) | 46.6 µM (inactive) | > 100 µM (inactive) | 37.2 µM (inactive) | > 100 µM (inactive) | > 100 µM (inactive) | > 100 µM (inactive) | 31.5 µM (inactive) | 14.4 µM (inactive) | > 100 µM (inactive)
5 | CN1C(=O)C2CCC(=O)N2c2cccnc21 (centres undefined) | > 100 µM (inactive) | > 100 µM (inactive) | > 100 µM (inactive) | > 100 µM (inactive) | > 100 µM (inactive) | > 100 µM (inactive) | > 100 µM (inactive) | > 100 µM (inactive) | > 100 µM (inactive) | > 100 µM (inactive) | > 100 µM (inactive) | > 100 µM (inactive) | > 100 µM (inactive) | > 100 µM (inactive) | > 100 µM (inactive) | > 100 µM (inactive) | > 100 µM (inactive) |  | > 100 µM (inactive) | > 100 µM (inactive)
6 | CCc1nn(CN2CCN(C)CC2)c(=S)n1/N=C\c1ccc(-c2ccc([N+](=O)[O-])cc2)o1 | 74.3 µM (inactive) | 34.9 µM (inactive) | 29.9 µM (inactive) | 40 µM (inactive) | 28.5 µM (inactive) | 42 µM (inactive) | 37 µM (inactive) |  | 89.9 µM (inactive) | > 100 µM (inactive) | 43.4 µM (inactive) | 51.5 µM (inactive) | 36.9 µM (inactive) | > 100 µM (inactive) | 59 µM (inactive) | 19.9 µM (inactive) | 48.5 µM (inactive) | 80.4 µM (inactive) | 58.2 µM (inactive) | 30.6 µM (inactive)
7 | COc1ccc(OC)c(CC(=O)c2ccc(O)c(C(=O)NCCc3ccc(F)cc3)c2)c1 | 2.96 µM (inactive) | 3.12 µM (inactive) | 4.18 µM (inactive) | 3.81 µM (inactive) | 7.23 µM (inactive) | 2.2 µM (inactive) | 12 µM (inactive) | 16.9 µM (inactive) | 3.27 µM (inactive) | 3.42 µM (inactive) | 7.13 µM (inactive) | 2.79 µM (inactive) | 10.5 µM (inactive) | 9.86 µM (inactive) | 6.95 µM (inactive) | 2.8 µM (inactive) | 4.63 µM (inactive) | 2.28 µM (inactive) |  | 1.43 µM (inactive)
8 | N#CC(C#N)=CNC(=S)c1ccncc1 | > 100 µM (inactive) | > 100 µM (inactive) | > 100 µM (inactive) | 39.1 µM (inactive) |  | > 100 µM (inactive) | 11.2 µM (inactive) | 45.1 µM (inactive) | 69.5 µM (inactive) | > 100 µM (inactive) | > 100 µM (inactive) | 21.9 µM (inactive) | 34.8 µM (inactive) | 46.9 µM (inactive) | > 100 µM (inactive) | > 100 µM (inactive) | 59.8 µM (inactive) | > 100 µM (inactive) | 87.5 µM (inactive) | 0.117 µM (active)
9 | COc1ccc2c(c1)N=C1CSC(c3ccccc3Cl)N1C2 (centres undefined) | 15.8 µM (inactive) | 17.9 µM (inactive) | 11.5 µM (inactive) | 7.82 µM (inactive) | 17.1 µM (inactive) | 23.4 µM (inactive) | 43.2 µM (inactive) | 14.9 µM (inactive) |  | 4.6 µM (inactive) | 7.98 µM (inactive) | 15.1 µM (inactive) | 11.8 µM (inactive) | 4.82 µM (inactive) | 6.55 µM (inactive) | 19.5 µM (inactive) | 5.07 µM (inactive) | 13 µM (inactive) | 11.1 µM (inactive) | 
10 | COc1ccc(NC(=O)CC(=O)N2N=C(N3CCCCC3)CC2c2ccccc2)cc1 (centres undefined) | > 100 µM (inactive) | > 100 µM (inactive) | > 100 µM (inactive) |  | > 100 µM (inactive) | > 100 µM (inactive) | > 100 µM (inactive) | > 100 µM (inactive) | > 100 µM (inactive) | > 100 µM (inactive) | > 100 µM (inactive) | > 100 µM (inactive) | > 100 µM (inactive) | > 100 µM (inactive) | > 100 µM (inactive) | > 100 µM (inactive) | > 100 µM (inactive) | > 100 µM (inactive) | > 100 µM (inactive) | > 100 µM (inactive)
11 | COc1ccc(NC(=S)N/N=C(\C)c2nc3cccnc3[nH]2)cc1 | 16.4 µM (inactive) | 10 µM (inactive) | 4.99 µM (inactive) | 3.58 µM (inactive) | 0.637 µM (active) | 7.59 µM (inactive) | 4.57 µM (inactive) | 4.52 µM (inactive) | 5.55 µM (inactive) | 5.47 µM (inactive) | 2.32 µM (inactive) | 7.03 µM (inactive) | 4.29 µM (inactive) | 5.37 µM (inactive) | 3.18 µM (inactive) | 3.26 µM (inactive) | 7.55 µM (inactive) |  | 5.65 µM (inactive) | 1.79 µM (inactive)
12 | CO/C=C/C=C(\C#N)C(=O)OC | > 100 µM (inactive) | > 100 µM (inactive) | > 100 µM (inactive) | > 100 µM (inactive) | > 100 µM (inactive) | > 100 µM (inactive) | > 100 µM (inactive) | > 100 µM (inactive) | > 100 µM (inactive) | > 100 µM (inactive) | > 100 µM (inactive) | > 100 µM (inactive) | > 100 µM (inactive) | > 100 µM (inactive) | > 100 µM (inactive) | > 100 µM (inactive) | > 100 µM (inactive) |  | > 100 µM (inactive) | > 100 µM (inactive)
13 | COc1ccc(-n2c(C)nc3ccc(NC4OC(CO)C(O)C(O)C4O)cc3c2=O)cc1 (centres undefined) | 97.5 µM (inactive) | > 100 µM (inactive) | > 100 µM (inactive) | > 100 µM (inactive) | > 100 µM (inactive) | > 100 µM (inactive) | > 100 µM (inactive) | > 100 µM (inactive) | > 100 µM (inactive) | > 100 µM (inactive) | > 100 µM (inactive) | > 100 µM (inactive) | > 100 µM (inactive) | > 100 µM (inactive) | > 100 µM (inactive) | > 100 µM (inactive) | > 100 µM (inactive) |  | > 100 µM (inactive) | > 100 µM (inactive)
14 | O=C(/C=C/c1ccc(OCc2ccccc2)cc1)NCc1ccc(C(=O)NCCc2ccccc2)cc1 | > 100 µM (inactive) | > 100 µM (inactive) | > 100 µM (inactive) |  | > 100 µM (inactive) | > 100 µM (inactive) | > 100 µM (inactive) | > 100 µM (inactive) | > 100 µM (inactive) | > 100 µM (inactive) | 23.3 µM (inactive) | > 100 µM (inactive) | > 100 µM (inactive) | > 100 µM (inactive) | > 100 µM (inactive) | > 100 µM (inactive) | > 100 µM (inactive) | > 100 µM (inactive) | > 100 µM (inactive) | > 100 µM (inactive)
